Assay [1] has as its target T1, PTP1B (Homo sapiens, UniProt P18031).
T1 sequence (P18031 1-405): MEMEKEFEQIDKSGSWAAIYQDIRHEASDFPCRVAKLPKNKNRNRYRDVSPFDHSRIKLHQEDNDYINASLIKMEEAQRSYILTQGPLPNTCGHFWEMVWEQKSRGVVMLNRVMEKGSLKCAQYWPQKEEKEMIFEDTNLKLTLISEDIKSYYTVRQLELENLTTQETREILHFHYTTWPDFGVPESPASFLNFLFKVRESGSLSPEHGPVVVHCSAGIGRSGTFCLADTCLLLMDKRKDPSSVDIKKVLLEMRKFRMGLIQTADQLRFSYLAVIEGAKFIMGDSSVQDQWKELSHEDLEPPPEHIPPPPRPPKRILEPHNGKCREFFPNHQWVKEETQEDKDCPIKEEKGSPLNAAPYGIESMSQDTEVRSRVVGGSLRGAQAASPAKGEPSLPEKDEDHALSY
Kind of assay: Inhibition of a panel of PTPs: PTP1B phosphatase activity, DiFMUP substrate. Type of assay: biochemical.

Another assay concerns the target T2, TC-PTP (Homo sapiens, UniProt P17706).
T2 sequence (P17706 1-415): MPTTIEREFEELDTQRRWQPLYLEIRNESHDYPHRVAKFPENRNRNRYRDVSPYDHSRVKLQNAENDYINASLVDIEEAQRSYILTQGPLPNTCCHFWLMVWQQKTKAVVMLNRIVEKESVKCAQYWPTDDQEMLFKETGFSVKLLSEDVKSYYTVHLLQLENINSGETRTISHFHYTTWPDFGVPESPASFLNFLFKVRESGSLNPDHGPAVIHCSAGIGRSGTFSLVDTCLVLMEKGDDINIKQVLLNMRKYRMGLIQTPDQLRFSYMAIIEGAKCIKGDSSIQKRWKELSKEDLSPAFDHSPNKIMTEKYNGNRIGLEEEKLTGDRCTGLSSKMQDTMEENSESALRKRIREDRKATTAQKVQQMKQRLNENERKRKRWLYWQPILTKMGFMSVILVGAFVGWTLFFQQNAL
Kind of assay: Inhibition of a panel of PTPs: TC-PTP. Type of assay: biochemical.

The next assay has as its target PTP-alpha (Homo sapiens, UniProt P18433). Briefly: Inhibition of a panel of PTPs: PTP-alpha. Type of assay: biochemical.
The target in the next assay is T3, PTP-PEST (Homo sapiens, UniProt Q05209).
T3 sequence (Q05209 1-780): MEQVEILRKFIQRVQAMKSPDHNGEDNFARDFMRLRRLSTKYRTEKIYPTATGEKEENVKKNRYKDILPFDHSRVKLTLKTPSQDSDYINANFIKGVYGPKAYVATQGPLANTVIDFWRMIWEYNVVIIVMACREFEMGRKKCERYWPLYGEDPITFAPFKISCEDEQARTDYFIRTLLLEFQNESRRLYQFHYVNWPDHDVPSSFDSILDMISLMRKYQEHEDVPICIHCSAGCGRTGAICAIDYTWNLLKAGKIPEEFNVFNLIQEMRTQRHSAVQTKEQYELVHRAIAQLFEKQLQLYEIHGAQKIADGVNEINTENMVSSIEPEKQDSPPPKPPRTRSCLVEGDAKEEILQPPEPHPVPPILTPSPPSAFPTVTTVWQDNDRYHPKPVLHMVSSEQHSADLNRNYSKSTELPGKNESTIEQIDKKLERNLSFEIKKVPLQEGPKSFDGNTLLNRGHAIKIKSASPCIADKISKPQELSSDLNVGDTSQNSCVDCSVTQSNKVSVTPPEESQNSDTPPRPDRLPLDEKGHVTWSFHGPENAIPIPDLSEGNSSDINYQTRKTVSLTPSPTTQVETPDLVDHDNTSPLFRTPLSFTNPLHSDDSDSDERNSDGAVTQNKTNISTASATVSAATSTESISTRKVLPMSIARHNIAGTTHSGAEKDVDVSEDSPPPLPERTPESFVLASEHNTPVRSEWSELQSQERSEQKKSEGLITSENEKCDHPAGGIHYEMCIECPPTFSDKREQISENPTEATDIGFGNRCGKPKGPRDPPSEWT
Briefly: Inhibition of a panel of PTPs: PTP-PEST. Type of assay: biochemical.

The target of another assay is LAR (Homo sapiens, UniProt P10586). Briefly: Inhibition of a panel of PTPs: LAR. Type of assay: biochemical.
In another assay the target is PTEN (Homo sapiens, UniProt P60484). Kind of assay: Inhibition of a panel of PTPs: PTEN. Type of assay: biochemical.
The next assay concerns the target T4, DUSP4 (Homo sapiens, UniProt Q13115).
T4 sequence (Q13115 1-394): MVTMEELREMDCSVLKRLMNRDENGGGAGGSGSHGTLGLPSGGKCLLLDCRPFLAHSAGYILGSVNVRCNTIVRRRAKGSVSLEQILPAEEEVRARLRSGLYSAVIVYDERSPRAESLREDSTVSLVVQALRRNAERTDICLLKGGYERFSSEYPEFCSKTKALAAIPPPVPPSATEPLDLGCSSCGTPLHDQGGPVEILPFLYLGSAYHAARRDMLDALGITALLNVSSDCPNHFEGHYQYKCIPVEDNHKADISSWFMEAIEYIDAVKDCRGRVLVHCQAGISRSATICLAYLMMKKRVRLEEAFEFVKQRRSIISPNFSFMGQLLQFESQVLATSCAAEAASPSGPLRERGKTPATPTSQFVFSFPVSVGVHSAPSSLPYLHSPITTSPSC
Kind of assay: Inhibition of a panel of PTPs: DUSP4. Type of assay: biochemical.

Another assay concerns the target T5, DUSP10 (Homo sapiens, UniProt Q9Y6W6).
T5 sequence (Q9Y6W6 1-482): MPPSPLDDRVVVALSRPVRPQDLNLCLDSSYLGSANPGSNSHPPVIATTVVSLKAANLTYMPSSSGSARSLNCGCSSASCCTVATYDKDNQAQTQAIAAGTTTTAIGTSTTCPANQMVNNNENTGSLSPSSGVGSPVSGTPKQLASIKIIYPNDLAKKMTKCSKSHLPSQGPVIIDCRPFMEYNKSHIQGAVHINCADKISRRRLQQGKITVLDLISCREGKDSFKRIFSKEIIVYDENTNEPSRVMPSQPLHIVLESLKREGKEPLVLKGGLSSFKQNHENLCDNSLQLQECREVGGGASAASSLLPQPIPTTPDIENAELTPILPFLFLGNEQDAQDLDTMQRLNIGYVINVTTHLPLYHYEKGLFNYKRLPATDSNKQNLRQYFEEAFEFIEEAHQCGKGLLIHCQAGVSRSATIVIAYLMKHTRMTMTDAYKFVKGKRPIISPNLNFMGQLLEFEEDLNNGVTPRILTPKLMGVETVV
Briefly: Inhibition of a panel of PTPs: DUSP10. Type of assay: biochemical.

For a further assay, the target named is T6, DUSP14 (Homo sapiens, UniProt O95147).
T6 sequence (O95147 1-198): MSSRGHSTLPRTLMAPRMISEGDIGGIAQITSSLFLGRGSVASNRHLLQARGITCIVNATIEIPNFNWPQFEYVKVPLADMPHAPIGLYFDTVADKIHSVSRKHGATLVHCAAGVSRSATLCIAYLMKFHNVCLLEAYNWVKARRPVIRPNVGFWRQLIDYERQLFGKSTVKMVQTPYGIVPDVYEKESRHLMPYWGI
Kind of assay: Inhibition of a panel of PTPs: DUSP14. Type of assay: biochemical.

The target in the next assay is T7, DUSP16 (Homo sapiens, UniProt Q9BY84).
T7 sequence (Q9BY84 1-665): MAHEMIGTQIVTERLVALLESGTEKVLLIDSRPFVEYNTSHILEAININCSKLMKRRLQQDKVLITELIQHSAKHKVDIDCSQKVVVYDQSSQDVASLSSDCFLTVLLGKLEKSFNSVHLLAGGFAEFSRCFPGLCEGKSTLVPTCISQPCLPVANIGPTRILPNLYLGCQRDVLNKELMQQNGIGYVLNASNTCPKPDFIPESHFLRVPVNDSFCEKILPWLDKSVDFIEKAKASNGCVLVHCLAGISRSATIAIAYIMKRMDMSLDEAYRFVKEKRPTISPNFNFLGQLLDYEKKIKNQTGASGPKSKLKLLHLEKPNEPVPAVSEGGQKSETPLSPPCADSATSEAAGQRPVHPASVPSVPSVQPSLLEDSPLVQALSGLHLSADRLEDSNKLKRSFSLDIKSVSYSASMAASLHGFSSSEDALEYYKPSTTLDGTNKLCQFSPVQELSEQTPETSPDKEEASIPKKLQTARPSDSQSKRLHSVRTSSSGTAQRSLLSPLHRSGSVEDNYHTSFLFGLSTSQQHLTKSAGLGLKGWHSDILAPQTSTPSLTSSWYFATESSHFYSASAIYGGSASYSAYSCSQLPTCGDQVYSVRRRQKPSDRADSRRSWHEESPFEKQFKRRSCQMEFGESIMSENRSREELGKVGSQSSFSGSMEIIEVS
Kind of assay: Inhibition of a panel of PTPs: DUSP16. Type of assay: biochemical.

Assay [2] addresses T1, PTP1B. Kind of assay: Kinetics of time-dependent PTP1B inactivation, continuous DiFMUP assay. Type of assay: biochemical. The conditions noted are these: catalase 0.5 μg/mL (1 unit per assay); PTP1B 5 nM; HEPES pH 7.0, 5 mM DTT.
Assay [3] has as its target T1, PTP1B. Kind of assay: Michaelis-Menten analysis of PTP1B with DiFMUP without and with inhibitor. Type of assay: biochemical. The conditions noted are these: read-out: drop of maximum rate (Vmax) in the presence of inhibitor.
A further assay has as its system IKK family members. The conditions noted are these: cited from earlier work.
Assay [4] has as its target T1, PTP1B. The conditions noted are these: cited from earlier work.
The test system of another assay is RAW 264 macrophages. Kind of assay: Anti-phosphotyrosine. Type of assay: cell-based. The conditions noted are these: 1 mM, 30 minutes; in the presence and absence of LPS.

Consider four compounds from publication PMC3712534 (The FEBS journal, 2013).

Chain of PTEN (P60484 whole entry, species assumed): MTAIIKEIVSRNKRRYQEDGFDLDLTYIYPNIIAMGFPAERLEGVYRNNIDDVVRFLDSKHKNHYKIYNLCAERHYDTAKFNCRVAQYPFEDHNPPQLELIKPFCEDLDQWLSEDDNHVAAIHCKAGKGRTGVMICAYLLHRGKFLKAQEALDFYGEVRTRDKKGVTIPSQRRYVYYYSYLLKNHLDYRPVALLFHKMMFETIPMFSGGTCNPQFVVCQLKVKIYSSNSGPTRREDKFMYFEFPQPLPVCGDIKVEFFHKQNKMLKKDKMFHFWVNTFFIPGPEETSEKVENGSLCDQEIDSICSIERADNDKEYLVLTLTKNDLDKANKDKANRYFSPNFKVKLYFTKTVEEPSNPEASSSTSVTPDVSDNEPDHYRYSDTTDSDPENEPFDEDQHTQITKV
Chain of LAR (P10586 30-1907, species assumed): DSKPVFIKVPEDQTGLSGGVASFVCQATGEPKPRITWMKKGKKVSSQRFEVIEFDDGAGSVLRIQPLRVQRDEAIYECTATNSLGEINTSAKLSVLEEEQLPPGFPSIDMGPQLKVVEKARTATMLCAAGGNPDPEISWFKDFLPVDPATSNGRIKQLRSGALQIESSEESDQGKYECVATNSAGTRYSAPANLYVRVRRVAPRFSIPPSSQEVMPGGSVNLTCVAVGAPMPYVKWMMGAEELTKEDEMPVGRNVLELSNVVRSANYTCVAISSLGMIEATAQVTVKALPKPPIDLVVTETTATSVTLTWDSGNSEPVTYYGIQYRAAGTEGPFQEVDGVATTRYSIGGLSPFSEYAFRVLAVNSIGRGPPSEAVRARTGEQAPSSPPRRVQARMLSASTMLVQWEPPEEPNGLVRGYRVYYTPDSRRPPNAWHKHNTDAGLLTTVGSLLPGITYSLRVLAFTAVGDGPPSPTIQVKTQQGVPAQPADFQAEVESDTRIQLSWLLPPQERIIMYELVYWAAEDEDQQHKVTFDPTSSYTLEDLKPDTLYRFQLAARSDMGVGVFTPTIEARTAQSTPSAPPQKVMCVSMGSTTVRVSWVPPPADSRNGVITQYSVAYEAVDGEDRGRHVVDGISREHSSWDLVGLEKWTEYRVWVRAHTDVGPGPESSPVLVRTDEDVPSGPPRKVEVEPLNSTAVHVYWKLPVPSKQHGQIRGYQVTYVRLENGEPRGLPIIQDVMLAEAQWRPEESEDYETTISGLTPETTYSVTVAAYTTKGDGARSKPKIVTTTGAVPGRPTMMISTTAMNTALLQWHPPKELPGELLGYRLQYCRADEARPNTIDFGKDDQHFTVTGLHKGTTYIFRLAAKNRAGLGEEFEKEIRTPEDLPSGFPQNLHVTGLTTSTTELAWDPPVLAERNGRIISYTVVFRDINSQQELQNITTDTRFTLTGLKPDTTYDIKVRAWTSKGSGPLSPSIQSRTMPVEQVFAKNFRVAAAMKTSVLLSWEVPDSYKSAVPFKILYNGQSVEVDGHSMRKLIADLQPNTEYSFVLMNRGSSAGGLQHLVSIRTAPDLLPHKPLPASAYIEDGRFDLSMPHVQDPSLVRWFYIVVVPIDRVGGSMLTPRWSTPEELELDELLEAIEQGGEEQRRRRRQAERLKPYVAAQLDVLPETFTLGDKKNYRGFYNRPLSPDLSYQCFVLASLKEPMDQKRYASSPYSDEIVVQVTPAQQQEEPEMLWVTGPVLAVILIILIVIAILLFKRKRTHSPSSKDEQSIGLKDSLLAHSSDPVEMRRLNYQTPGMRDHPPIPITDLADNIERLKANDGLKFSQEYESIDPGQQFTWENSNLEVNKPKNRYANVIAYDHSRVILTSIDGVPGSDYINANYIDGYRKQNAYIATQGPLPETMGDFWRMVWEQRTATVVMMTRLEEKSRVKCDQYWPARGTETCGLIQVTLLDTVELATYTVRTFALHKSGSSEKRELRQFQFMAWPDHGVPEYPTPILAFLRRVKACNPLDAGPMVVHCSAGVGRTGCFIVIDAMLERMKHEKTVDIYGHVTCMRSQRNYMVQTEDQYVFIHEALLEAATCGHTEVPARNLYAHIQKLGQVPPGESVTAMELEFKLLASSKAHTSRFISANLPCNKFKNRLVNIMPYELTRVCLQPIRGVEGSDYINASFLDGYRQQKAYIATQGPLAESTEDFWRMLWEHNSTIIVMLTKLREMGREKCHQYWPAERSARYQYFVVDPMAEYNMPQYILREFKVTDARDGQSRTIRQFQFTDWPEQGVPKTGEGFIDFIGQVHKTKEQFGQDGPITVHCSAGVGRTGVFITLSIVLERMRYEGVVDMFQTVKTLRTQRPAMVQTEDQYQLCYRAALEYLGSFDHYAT
Chain of PTP-alpha (P18433 20-802): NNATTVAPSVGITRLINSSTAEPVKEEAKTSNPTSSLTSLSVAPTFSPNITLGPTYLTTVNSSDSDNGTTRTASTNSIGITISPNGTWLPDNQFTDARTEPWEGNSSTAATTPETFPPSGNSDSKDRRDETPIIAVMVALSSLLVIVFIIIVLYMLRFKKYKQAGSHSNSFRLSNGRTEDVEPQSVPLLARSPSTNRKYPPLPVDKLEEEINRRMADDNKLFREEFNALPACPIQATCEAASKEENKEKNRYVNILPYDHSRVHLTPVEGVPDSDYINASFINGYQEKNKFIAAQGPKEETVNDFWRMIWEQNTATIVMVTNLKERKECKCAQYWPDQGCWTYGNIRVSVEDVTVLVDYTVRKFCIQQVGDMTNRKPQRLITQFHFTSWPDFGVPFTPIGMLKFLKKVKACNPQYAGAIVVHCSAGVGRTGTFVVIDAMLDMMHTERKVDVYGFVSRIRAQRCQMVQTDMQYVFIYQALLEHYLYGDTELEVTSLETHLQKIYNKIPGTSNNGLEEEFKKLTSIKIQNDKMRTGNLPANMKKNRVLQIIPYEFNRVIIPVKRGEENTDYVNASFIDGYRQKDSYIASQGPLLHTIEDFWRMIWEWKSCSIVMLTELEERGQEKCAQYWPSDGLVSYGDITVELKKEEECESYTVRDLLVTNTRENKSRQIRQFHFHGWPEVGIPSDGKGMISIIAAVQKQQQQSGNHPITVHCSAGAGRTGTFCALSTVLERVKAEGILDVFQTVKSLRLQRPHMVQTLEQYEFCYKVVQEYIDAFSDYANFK

As to `Cc1ccc(S(=O)(=O)/C=C/C#N)cc1` [BAY 11-7082], the Ki worked out at 1 µM at PTP1B [1]; 1.5 µM on TC-PTP; 2.3 µM at PTP-alpha; 0.9 µM on PTP-PEST; 2.5 µM at LAR; 100 µM on PTEN. In addition, the Ki on DUSP4 came out at 140 µM; at DUSP10, 150 µM; on DUSP14, 180 µM; at DUSP16, 125 µM. The “rate of inactivation of PTP1B in the absence and presence of catalase” value at PTP1B [2] was “the same”. The inhibition at 2 µM on PTP1B [3] is about 50%. The “inhibition of IKK family members in vitro” value in the assay with IKK family members is reported as “does not inhibit”.
With `OO` [H2O2, hydrogen peroxide], the “rate of oxidation of the enzyme” value at PTP1B [4] is 10 M⁻¹ s⁻¹.
Consider `[Na+].[Na+].[Na+].[O]=[V]([O-])([O-])[O-]` [sodium orthovanadate], for which the “extent of tyrosine phosphorylation (anti-pTyr immunoblot)” value with RAW 264 macrophages was “enhanced”.
In the case of `CC(C)(C)c1ccc(S(=O)(=O)/C=C/C#N)cc1` [BAY 11-7085], the Ki at PTP1B [1] was 36 µM; at TC-PTP, 39 µM; at PTP-alpha it was 45 µM; at PTP-PEST, 40 µM; on LAR, 57 µM; at PTEN, 200 µM. The Ki on DUSP4 came to 160 µM; on DUSP10, 180 µM; on DUSP14, 210 µM; at DUSP16 it was 205 µM.

As usually defined, the Ki is the dissociation constant of the complex between target and ligand, obtained from inhibition or displacement. The low end stands for tighter binding, the high end for weaker binding.
